# Reference: US8604029B2, “2-[(2-substituted)-indolizin-3-yl]-2-oxo-acetamide derivatives as antifungal agents” (F2G Ltd British Body Corporate, priority 2006, dated 2013)
# Tested on: Aspergillus fumigatus
# Assay: MIC measurement, YAG medium
# Format: cell-based
# Details: Aspergillus fumigatus; YAG medium; MIC banded into grades; strain AF293; read-out: MIC A. fumigatus
# Protocol: Between 1 and 5 mgs of compound were accurately weighed out into a sterile Eppendorf tube. The compound was dissolved in DMSO to give a solution containing […]. Tubes were stored at −20° C. until required.
# On the day of testing thawed solutions were vortex mixed to ensure homogeneity. 30 μL of solution was removed and added to 570 μL of sterile water in a separate sterile Eppendorf. The thoroughly mixed solution was used to prepare a series of doubling dilutions in water, in a deep well plate. Thirteen replicate plates were prepared using a Minitrak by aspirating 20 μL from each well into eleven clear polystyrene 96 well plates.
# Spores of Aspergillus spp. (Aspergillus fumigatus [two strains], Aspergillus terreus [two strains], Aspergillus niger and Aspergillus flavus) were harvested from cultures grown on Sabarauds agar for 5 days, and resuspended in PBS/Tween 80 to approx 1×10^7 cfu/mL. Other filamentous fungi (Absidia corymbifera, Fusarium solani, Rhizomucor, Scedosporium spp., Trichophyton spp.), were grown on Sabarauds agar for 2-10 days and spores/hyphae resuspended in PBS/Tween to give approx 1×10^7 cfu/mL. Candida species (Candida albicans, Candida glabrata, Candida krusei, Candida parapsilosis and Candida tropicalis) were grown on Sabarauds agar, cells were harvested from the agar using a sterile loop and resuspended in PBS/Tween 80 to approx 1×10^6 cfu/mL. Each organism suspension was diluted in RPMI medium, containing 2% glucose and 0.135 M MOPS buffer (pH 7.0) to 0.5-2×10^4 cfu/mL for Aspergillus spp. and other filamentous fungi and 0.5-2×10^3 cfu/mL for yeast. 80 μL of an organism suspension was added to each well of the plate containing drug dilutions.
# This produced MIC plates with a drug range 50-0.05 mg/L and organism inocula of 1-2×10^4 cfu/mL for Aspergillus spp. and other filamentous fungi and 1-2×10^3 cfu/mL for yeasts. All plates were incubated for 24-48 hrs at 35° C. Growth was assessed by monitoring the optical density at 485 nm for each well. The MIC of a compound is the lowest drug concentration that inhibits growth of an organism by >80% compared with a drug free control. MICs are recorded as mg/L. Other growth media can be used for susceptibility testing, and the activity of the described compounds can also be assessed in a medium comprising 1% glucose, 1% ammonium chloride and 0.5% yeast extract (YAG medium). To perform MIC tests in this medium, dilutions of compounds are prepared in microtitre plates as described above. Fungal strains to be tested are grown and harvested in an identical manner to that described above, each organism suspension is then diluted in YAG medium to 0.5-2×10^4 cfu/mL for Aspergillus spp. and other filamentous fungi and 0.5-2×10^3 cfu/mL for yeast. 80 μL of an organism suspension was added to each well of the plate containing drug dilutions. This produced MIC plates with a drug range 50-0.05 mg/L and organism inocula of 1-2×10^4 cfu/mL for Aspergillus spp. and other filamentous fungi and 1-2×10^3 cfu/mL for yeasts. All plates were incubated for 24 hrs at 35° C. Growth was assessed by monitoring the optical density at 485 nm for each well. The MIC of a compound is the lowest drug concentration that inhibits growth of an organism by >70% compared with a drug free control. MICs are recorded as mg/L. In cases where the MIC of an organism is […] mg/L the MIC is repeated using a concentration range of 0.5-0.0005 mg/L. MIC tests in YAG medium have more clear-cut endpoints and have slightly lower MICs than those performed in RPMI medium.
# The following organisms were tested: Absidia corymbifera, Aspergillus flavus, Aspergillus fumigatus AF293 and AF210, Aspergillus niger, Aspergillus terreus AT4 and AT49, Candida albicans, Candida glabrata, Candida krusei, Candida parapsilosis, Candida tropicalis, Fusarium solani, Rhizomucor sp., Scedosporium apiospermum, Scedosporium prolificans, Trichophyton mentagrophytes, and Trichophyton rubrum.
row,Structure (SMILES),MIC
1,"O=C(Nc1ccc(C(=O)OC2CCOCC2)c(O)c1)C(=O)c1c(-c2ccccc2)cc2ccccn12 [Example 11, 2-hydroxy-4-[2-oxo-2-(2-phenyl-indolizin-3-yl)-acetylamino]-benzoic acid tetrahydro-pyran-4-yl ester]",< 1 µg/mL
2,"O=C(Nc1ccc(N2CCN(CCc3ccco3)CC2)cc1)C(=O)c1c(-c2ccccc2)cc2ccccn12 [Example 39, N-{4-[4-(2-Furan-2-yl-ethyl)-piperazin-1-yl]-phenyl}-2-oxo-2-(2-phenyl-indolizin-3-yl)-acetamide]",< 1 µg/mL
3,"O=C(Nc1ccc(N2CCC3(CC2)OCCO3)cc1)C(=O)c1c(-c2ccccc2)cc2ccccn12 [Example 23, N-[4-(1,4-dioxa-8-aza-spiro[4.5]dec-8-yl)-phenyl}-2-oxo-2-(2-phenyl-indolizine-3-yl)-acetamide]",< 1 µg/mL
4,"O=C(Nc1ccc(N2CCN(c3ccc(CN4CCOCC4)cc3)CC2)cc1)C(=O)c1c(-c2ccccc2)cc2ccccn12 [Example 56, N-{4-[4-(4-Morpholin-4-ylmethyl-phenyl)-piperazin-1-yl]-phenyl}-2-oxo-2-(2-phenyl-indolizin-3-yl)-acetamide]",< 1 µg/mL
5,"Cc1ccc(N2CCN(c3ccc(NC(=O)C(=O)c4c(-c5ccccc5)cc5ccccn45)cc3)CC2)nc1 [Example 74, N-{4-[4-(5-Methyl-pyridin-2-yl)-piperazin-1-yl]-phenyl}-2-oxo-2-(2-phenyl-indolizin-3-yl)-acetamide]",< 1 µg/mL
6,"Cc1cc(C)nc(N2CCN(c3ccc(NC(=O)C(=O)c4c(C5CCCC5)cc5ccccn45)cc3)CC2)c1 [Example 47, 2-(2-Cyclopentyl-indolizin-3-yl)-N-{4-[4-(4,6-dimethyl-pyridin-2-yl)-piperazin-1-yl]-phenyl}-2-oxo-acetamide]",< 1 µg/mL

# More lines, now with the values ahead:
row,MIC,Structure (SMILES)
1,< 1 µg/mL,"COCc1cc(NC(=O)C(=O)c2c(-c3ccccc3)cc3ccccn23)ccc1N1CCN(c2cc(C)cc(C)n2)CC1 [Example 81, N-{4-[4-(4,6-Dimethyl-pyridin-2-yl)-piperazin-1-yl]-3-methoxymethyl-phenyl}-2-oxo-2-(2-phenyl-indolizin-3-yl)-acetamide]"
2,> 10 µg/mL,"CN1/C(=N/c2ccc(NC(=O)C(=O)c3c(-c4ccccc4)cc4ccccn34)cc2)OCC1(C)C [Example 8, 2-oxo-2-(2-phenyl-indolizin-3-yl)-N-{4-[3,4,4-trimethyl-oxazolidin-(2Z)-ylideneamino]-phenyl}-acetamide]"
3,> 10 µg/mL,"Cc1cc(N2CCN(c3ccc(NC(=O)C(=O)c4c(-c5ccccc5)cc5ccccn45)cc3)CC2)cc(C)n1 [Example 52, N-{4-[4-(2,6-Dimethyl-pyridin-4-yl)-piperazin-1-yl]-phenyl}-2-oxo-2-(2-phenyl-indolizin-3-yl)-acetamide]"
4,< 1 µg/mL,"Cc1cc(C)nc(N(C)CCOc2ccc(NC(=O)C(=O)c3c(-c4ccccc4)cc4ccccn34)cc2)c1 [Example 64, N-(4-{2-[(4,6-Dimethyl-pyridin-2-yl)-methyl-amino]-ethoxy}-phenyl)-2-oxo-2-(2-phenyl-indolizin-3-yl)-acetamide]"
5,> 10 µg/mL,"CC(C)c1nc(C(C)(C)c2cccc(NC(=O)C(=O)c3c(-c4ccccc4)cc4ccccn34)c2)cn1C [Example 14, N-{3-[1-(2-Isopropyl-1-methyl-1H-imidazol-4-yl)-1-methyl-ethyl]-phenyl}-2-oxo-2-(2-phenyl-indolizin-3-yl)-acetamide]"
6,> 10 µg/mL,"CC(C)c1ncc(C(C)(C)c2ccc(NC(=O)C(=O)c3c(-c4ccccc4)cc4ccccn34)cc2)n1C [Example 17, N-{4-[1-(2-Isopropyl--3-methyl-3H-imidazol-4-yl)-1-methyl-ethyl]-phenyl}-2-oxo-2-(2-phenyl-indolizin-3-yl)-acetamide]"
7,> 10 µg/mL,"CC(C)c1nccn1CCOC(=O)C(C)(C)c1ccc(NC(=O)C(=O)c2c(-c3ccccc3)cc3ccccn23)cc1 [Example 18, 2-methyl-2-{4-[2-oxo-2-(2-phenyl-indolizin-3-yl)-acetylamino]-phenyl}-propionic acid 2-(2-isopropyl-imidazol-1-yl)-ethyl ester]"
